Assay results reported in patent US10874104B2, “Pesticidally active pryazole derivatives” (SYNGENTA PARTICIPATIONS AG, priority 2016, dated 2020).

Key:
Assay type in all cases: in vivo
[1] = system: Plutella xylostella (Diamond Back Moth); assay: Plutella xylostella (diamond back moth), feeding/contact activity on artificial diet, mortality; conditions: 120 h, application rate 200 ppm, L2 larvae on artificial diet, 5 days after infestation, read-out: mortality
Experimental: Plutella xylostella (Diamond Back Moth): Feeding/Contact Activity
24-well microtiter plates with artificial diet were treated with aqueous test solutions prepared from 10′000 ppm DMSO stock solutions by pipetting. After drying, the plates were infested with L2 larvae (10 to 15 per well). The samples were assessed for mortality 5 days after infestation.

[2] = system: Thrips tabaci (Onion Thrips); assay: Thrips tabaci (onion thrips), feeding/contact activity, mortality; conditions: 144 h, application rate 200 ppm, thrips population of mixed ages, 6 days after infestation, read-out: mortality
Experimental: Thrips tabaci (Onion Thrips): Feeding/Contact Activity
Sunflower leaf discs were placed on agar in 24-well microtiter plates and sprayed with aqueous test solutions prepared from 10′000 ppm DMSO stock solutions. After drying the leaf discs were infested with a thrips population of mixed ages. The samples were assessed for mortality 6 days after infestation.

[3] = system: Diabrotica balteata (Corn Root Worm); assay: Diabrotica balteata (corn root worm), sprayed maize sprouts on agar, mortality; conditions: 96 h, application rate 200 ppm, L2 larvae, 4 days after infestation, read-out: mortality
Experimental: Diabrotica balteata (Corn Root Worm):
Maize sprouts placed onto an agar layer in 24-well microtiter plates were treated with aqueous test solutions prepared from 10′000 ppm DMSO stock solutions by spraying. After drying, the plates were infested with L2 larvae (6 to 10 per well). The samples were assessed for mortality 4 days after infestation.

[4] = system: Spodoptera littoralis (Egyptian Cotton Leaf Worm); assay: Spodoptera littoralis (Egyptian cotton leaf worm), feeding/contact activity, mortality; conditions: 72 h, application rate 200 ppm, L1 larvae, 3 days after infestation, read-out: mortality
Experimental: Spodoptera littoralis (Egyptian Cotton Leaf Worm): Feeding/Contact Activity
Cotton leaf discs were placed onto agar in 24-well microtiter plates and sprayed with aqueous test solutions prepared from 10′000 ppm DMSO stock solutions. After drying the leaf discs were infested with five L1 larvae. The samples were assessed for mortality 3 days after infestation.

[5] = system: Euschistus heros (Neotropical Brown Stink Bug); assay: Euschistus heros (neotropical brown stink bug), feeding/contact activity, mortality; conditions: 120 h, application rate 200 ppm, N2 nymphs, 5 days after infestation, read-out: mortality
Experimental: Euschistus heros (Neotropical Brown Stink Bug): Feeding/contact activity
Soybean leaves on agar in 24-well microtiter plates were sprayed with aqueous test solutions prepared from 10′000 ppm DMSO stock solutions. After drying the leaves were infested with N2 nymphs. The samples were assessed for mortality 5 days after infestation.

[6] = system: Myzus persicae (Green Peach Aphid); assay: Myzus persicae (green peach aphid), feeding/contact activity, mortality; conditions: 144 h, application rate 200 ppm, aphid population of mixed ages, 6 days after infestation
Experimental: Myzus persicae (Green Peach Aphid): Feeding/Contact Activity
Sunflower leaf discs were placed onto agar in a 24-well microtiter plate and sprayed with aqueous test solutions prepared from 10′000 ppm DMSO stock solutions. After drying, the leaf discs were infested with an aphid population of mixed ages. The samples were assessed for mortality 6 days after infestation.

[7] = system: Tetranychus urticae (Two-Spotted Spider Mite); assay: Tetranychus urticae (two-spotted spider mite), feeding/contact activity, mortality; conditions: 192 h, application rate 200 ppm, mixed population (mobile stages), 8 days after infestation
Experimental: Tetranychus urticae (Two-Spotted Spider Mite): Feeding/Contact Activity
Bean leaf discs on agar in 24-well microtiter plates were sprayed with aqueous test solutions prepared from 10′000 ppm DMSO stock solutions. After drying the leaf discs were infested with a mite population of mixed ages. The samples were assessed for mortality on mixed population (mobile stages) 8 days after infestation.

Measured: mortality at 200 ppm

Cn1nc(C(F)(F)C(F)(F)F)c(C2CC2)c1-n1cc(-c2ccc(Cl)c(C(=O)NC3(C#N)CC3)c2)cn1 [Compound 9]
≥ 80%: all assays above

C=Cc1c(C(F)(F)C(F)(F)F)nn(C)c1-n1cc(-c2ccc(Cl)c(C(=O)NC3CC3)c2)cn1 [Compound 16, 2-Chloro-N-cyclopropyl-5-[1-[2-methyl-5-(1,1,2,2,2-pentafluoroethyl)-4-vinyl-pyrazol-3-yl]pyrazol-4-yl]benzamide]
≥ 80%: all assays above

Cn1nc(C(F)(F)C(F)(F)F)c(SC2CC2)c1-n1cc(-c2ccc(Cl)c(C(=O)NC3(C#N)CC3)c2)cn1 [Compound 19]
≥ 80%: all assays above

Cn1nc(C(F)(F)C(F)(F)F)c(SC2CC2)c1-n1cc(-c2ccc(Cl)c(C(=O)NC3CC3)c2)cn1 [Compound 20]
≥ 80%: all assays above

Cn1nc(C(F)(F)C(F)(F)F)c(OC(F)F)c1-n1cc(-c2cnc(Cl)c(C(=O)NC3(C#N)CC3)c2)cn1 [Compound 21]
not listed: [2]
≥ 80%: all other assays above

Cn1nc(C(F)(F)C(F)(F)F)c(OC(F)F)c1-n1cc(-c2cnc(Cl)c(C(=O)NC3CC3)c2)cn1 [Compound 22]
≥ 80%: all assays above

Cn1nc(C(F)(F)C(F)(F)F)c([S+]([O-])C2CC2)c1-n1cc(-c2ccc(Cl)c(C(=O)NC3CC3)c2)cn1 (stereo not shown) [Compound 34]
≥ 80%: all assays above

Cn1nc(C(F)(F)C(F)(F)F)c([S+]([O-])C2CC2)c1-n1cc(-c2ccc(Cl)c(C(=O)NC3(C#N)CC3)c2)cn1 (stereo not shown) [Compound 36]
≥ 80%: all assays above
